Legend:
Format in all cases: biochemical
[1] = target: T1, PI3Kγ (Homo sapiens, UniProt P48736); assay: TR-FRET enzymatic activity assay, PI3Kγ; conditions: Table 2a; same assay; read-out: PI3Kγ IC50
T1 construct: made in house
In short: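 Read-out is TR-FRET. The assay scores enzymatic activity of the individual PI3K isoforms in the presence of compound.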

[2] = target: T2, PI3Kβ (Homo sapiens, UniProt P42338); assay: TR-FRET enzymatic activity assay, PI3Kβ; conditions: Table 2a; same assay
T2 construct: made in house
T2 sequence (P42338 whole entry): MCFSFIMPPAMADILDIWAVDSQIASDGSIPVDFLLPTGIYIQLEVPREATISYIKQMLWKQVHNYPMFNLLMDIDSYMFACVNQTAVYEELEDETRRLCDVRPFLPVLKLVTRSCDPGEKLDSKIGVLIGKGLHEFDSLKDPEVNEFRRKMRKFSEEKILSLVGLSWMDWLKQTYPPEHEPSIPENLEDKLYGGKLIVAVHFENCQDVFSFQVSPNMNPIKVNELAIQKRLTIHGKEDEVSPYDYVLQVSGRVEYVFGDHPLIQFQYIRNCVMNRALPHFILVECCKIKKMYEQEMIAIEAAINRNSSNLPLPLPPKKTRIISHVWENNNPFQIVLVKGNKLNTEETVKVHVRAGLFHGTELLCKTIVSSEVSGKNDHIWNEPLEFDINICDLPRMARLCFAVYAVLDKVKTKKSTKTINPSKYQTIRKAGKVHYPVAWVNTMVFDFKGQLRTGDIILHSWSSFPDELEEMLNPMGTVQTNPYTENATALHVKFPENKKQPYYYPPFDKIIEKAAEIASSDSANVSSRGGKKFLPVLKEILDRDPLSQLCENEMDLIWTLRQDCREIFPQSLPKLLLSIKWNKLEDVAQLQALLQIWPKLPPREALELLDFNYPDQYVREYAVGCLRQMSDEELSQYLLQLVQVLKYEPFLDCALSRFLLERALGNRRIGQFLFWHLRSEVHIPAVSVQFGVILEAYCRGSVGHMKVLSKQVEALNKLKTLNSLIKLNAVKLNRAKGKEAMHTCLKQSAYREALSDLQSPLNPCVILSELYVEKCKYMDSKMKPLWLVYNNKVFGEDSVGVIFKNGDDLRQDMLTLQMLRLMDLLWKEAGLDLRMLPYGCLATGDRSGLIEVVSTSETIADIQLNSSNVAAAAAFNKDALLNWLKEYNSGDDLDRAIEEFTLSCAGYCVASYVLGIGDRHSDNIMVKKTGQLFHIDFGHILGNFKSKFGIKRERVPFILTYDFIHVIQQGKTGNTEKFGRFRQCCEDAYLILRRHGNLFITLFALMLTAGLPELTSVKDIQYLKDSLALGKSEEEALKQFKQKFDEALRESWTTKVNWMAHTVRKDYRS
T2 sequence (P27986 whole entry partner): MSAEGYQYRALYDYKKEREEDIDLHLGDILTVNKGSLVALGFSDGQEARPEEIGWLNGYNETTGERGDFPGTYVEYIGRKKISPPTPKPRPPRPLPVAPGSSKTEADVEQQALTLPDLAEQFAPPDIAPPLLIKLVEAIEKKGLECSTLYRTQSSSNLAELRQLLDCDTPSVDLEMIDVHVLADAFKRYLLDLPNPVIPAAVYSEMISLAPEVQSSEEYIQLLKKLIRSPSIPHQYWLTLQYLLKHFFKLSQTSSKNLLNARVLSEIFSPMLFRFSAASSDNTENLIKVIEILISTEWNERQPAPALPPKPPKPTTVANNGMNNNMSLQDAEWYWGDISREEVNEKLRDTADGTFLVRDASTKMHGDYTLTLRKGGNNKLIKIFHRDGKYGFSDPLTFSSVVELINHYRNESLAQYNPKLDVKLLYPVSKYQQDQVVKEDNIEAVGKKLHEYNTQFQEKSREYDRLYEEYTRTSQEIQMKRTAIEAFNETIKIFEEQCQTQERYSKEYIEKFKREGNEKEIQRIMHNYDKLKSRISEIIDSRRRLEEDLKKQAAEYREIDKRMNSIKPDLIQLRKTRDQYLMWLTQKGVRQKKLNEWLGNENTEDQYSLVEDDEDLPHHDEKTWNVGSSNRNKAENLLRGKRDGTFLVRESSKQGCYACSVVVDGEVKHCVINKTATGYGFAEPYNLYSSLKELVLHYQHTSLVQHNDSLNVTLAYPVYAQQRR

[3] = target: T3, PI3Kδ (Homo sapiens, UniProt O00329); assay: TR-FRET enzymatic activity assay, PI3Kδ; conditions: Table 2a; same assay
T3 construct: made in house
T3 sequence (O00329 whole entry): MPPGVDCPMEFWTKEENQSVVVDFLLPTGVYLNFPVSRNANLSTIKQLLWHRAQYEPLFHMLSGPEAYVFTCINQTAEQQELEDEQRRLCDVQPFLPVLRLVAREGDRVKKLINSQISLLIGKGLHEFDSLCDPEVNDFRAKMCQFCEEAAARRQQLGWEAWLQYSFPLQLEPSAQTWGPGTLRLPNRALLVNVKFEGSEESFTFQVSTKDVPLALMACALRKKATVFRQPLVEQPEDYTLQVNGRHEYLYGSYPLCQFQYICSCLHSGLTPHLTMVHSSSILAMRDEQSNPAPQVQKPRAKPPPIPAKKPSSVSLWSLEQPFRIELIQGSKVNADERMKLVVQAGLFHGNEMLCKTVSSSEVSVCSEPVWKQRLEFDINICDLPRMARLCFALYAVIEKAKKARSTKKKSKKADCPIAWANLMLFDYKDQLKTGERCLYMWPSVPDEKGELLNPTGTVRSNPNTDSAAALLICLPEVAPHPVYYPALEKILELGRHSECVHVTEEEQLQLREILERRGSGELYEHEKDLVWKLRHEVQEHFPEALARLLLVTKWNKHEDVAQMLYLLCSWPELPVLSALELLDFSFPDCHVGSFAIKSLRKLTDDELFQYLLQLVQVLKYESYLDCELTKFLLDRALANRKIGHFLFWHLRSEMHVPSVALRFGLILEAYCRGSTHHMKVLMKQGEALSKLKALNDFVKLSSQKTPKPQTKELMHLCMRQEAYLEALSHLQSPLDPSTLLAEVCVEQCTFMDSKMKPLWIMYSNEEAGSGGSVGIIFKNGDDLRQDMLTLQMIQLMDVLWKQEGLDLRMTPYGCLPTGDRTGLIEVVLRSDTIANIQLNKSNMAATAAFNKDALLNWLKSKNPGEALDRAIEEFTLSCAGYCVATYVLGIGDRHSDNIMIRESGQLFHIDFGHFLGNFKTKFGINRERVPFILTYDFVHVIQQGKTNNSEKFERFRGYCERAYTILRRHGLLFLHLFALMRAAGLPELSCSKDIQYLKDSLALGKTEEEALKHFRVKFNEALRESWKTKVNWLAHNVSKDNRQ
T3 sequence (P27986 whole entry partner): as the sequence (P27986 whole entry partner) above

T1 sequence (P48736 whole entry): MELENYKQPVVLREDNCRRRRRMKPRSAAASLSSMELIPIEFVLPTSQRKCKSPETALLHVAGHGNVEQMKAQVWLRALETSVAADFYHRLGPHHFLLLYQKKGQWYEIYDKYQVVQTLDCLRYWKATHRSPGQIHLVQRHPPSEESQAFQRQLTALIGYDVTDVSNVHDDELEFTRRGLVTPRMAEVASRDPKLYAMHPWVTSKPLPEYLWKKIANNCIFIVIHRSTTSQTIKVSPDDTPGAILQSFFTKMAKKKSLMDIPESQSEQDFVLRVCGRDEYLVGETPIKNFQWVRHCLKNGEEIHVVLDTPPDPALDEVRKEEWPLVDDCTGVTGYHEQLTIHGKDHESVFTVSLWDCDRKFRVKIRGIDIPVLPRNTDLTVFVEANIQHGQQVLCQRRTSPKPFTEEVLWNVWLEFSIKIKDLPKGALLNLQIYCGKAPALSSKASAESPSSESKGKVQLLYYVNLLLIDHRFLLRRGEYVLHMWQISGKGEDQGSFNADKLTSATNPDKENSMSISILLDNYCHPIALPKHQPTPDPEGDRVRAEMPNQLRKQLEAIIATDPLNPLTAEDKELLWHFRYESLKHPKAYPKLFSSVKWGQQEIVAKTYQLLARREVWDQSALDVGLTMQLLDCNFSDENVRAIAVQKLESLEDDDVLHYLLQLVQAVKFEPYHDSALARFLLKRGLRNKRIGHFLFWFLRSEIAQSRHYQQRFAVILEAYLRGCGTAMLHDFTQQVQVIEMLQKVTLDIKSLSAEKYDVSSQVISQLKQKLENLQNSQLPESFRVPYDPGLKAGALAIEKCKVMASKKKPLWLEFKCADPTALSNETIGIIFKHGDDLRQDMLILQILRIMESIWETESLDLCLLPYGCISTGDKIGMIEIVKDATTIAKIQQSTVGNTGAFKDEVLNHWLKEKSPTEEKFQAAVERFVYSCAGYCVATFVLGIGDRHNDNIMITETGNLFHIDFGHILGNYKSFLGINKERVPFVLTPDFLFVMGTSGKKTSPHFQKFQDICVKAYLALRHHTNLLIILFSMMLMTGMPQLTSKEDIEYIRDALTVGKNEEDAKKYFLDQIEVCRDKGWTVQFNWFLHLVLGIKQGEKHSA

SMILES	IC50 [1]	IC50 [2]	IC50 [3]
CCC[C@H](Nc1nc(N)nc(N)c1C#N)c1nc2c(Cl)ccc(Cl)c2c(=O)n1-c1cn[nH]c1 [Compound 251, (S)-2,4-diamino-6-((1-(5,8-dichloro-4-oxo-3-(1H-pyrazol-4-yl)-3,4-dihydroquinazolin-2-yl)butyl)amino)pyrimidine-5-carbonitrile]	770 nM	10 nM	2 nM
CCC[C@H](Nc1nc(N)nc(N)c1Cl)c1nc2c(Cl)ccc(Cl)c2c(=O)n1-c1cn[nH]c1 [Compound 252, (S)-5,8-dichloro-2-(1-((2,6-diamino-5-chloropyrimidin-4-yl)amino)butyl)-3-(1H-pyrazol-4-yl)quinazolin-4(3H)-one]	> 10000 nM	920 nM	75 nM
CCC[C@H](Nc1nc(N)nc(N)c1C#N)c1nc2cccc(Cl)c2c(=O)n1-c1cc[nH]n1 [Compound 253, (S)-2,4-diamino-6-((1-(5-chloro-4-oxo-3-(1H-pyrazol-3-yl)-3,4-dihydroquinazolin-2-yl)butyl)amino)pyrimidine-5-carbonitrile]	320 nM	4 nM	1 nM
CCC[C@H](Nc1nc(N)nc(N)c1C#N)c1nc2c(Cl)ccc(Cl)c2c(=O)n1-c1cc[nH]n1 [Compound 254, (S)-2,4-diamino-6-((1-(5,8-dichloro-4-oxo-3-(1H-pyrazol-3-yl)-3,4-dihydroquinazolin-2-yl)butyl)amino)pyrimidine-5-carbonitrile]	1400 nM	2 nM	2 nM
CCC[C@H](Nc1nc(N)nc(N)c1Cl)c1nc2c(Cl)ccc(Cl)c2c(=O)n1-c1cc[nH]n1 [Compound 255, (S)-5,8-dichloro-2-(1-((2,6-diamino-5-chloropyrimidin-4-yl)amino)butyl)-3-(1H-pyrazol-3-yl)quinazolin-4(3H)-one]	> 10000 nM	150 nM	30 nM
CC[C@H](Nc1nc(N)nc(N)c1C#N)c1nc2c(Cl)cc(F)cc2c(=O)n1-c1cc[nH]n1 [Compound 258, (S)-2,4-diamino-6-((1-(8-chloro-6-fluoro-4-oxo-3-(1H-pyrazol-3-yl)-3,4-dihydroquinazolin-2-yl)propyl)amino)pyrimidine-5-carbonitrile]	3900 nM	7 nM	3 nM
C[C@H](Nc1nc(N)nc(N)c1Cl)c1nc2ccc(F)c(Cl)c2c(=O)n1-c1cc[nH]n1 [Compound 259, (S)-5-chloro-2-(1-((2,6-diamino-5-chloropyrimidin-4-yl)amino)ethyl)-6-fluoro-3-(1H-pyrazol-3-yl)quinazolin-4(3H)-one]	3500 nM	21 nM	6 nM
C[C@H](Nc1nc(N)nc(N)c1C#N)c1nc2ccc(F)c(Cl)c2c(=O)n1-c1cc[nH]n1 [Compound 260, (S)-2,4-diamino-6-((1-(5-chloro-6-fluoro-4-oxo-3-(1H-pyrazol-3-yl)-3,4-dihydroquinazolin-2-yl)ethyl)amino)pyrimidine-5-carbonitrile]	220 nM	2 nM	0.7 nM
Nc1nc(N)c(Cl)c(N[C@H](c2nc3ccc(F)c(Cl)c3c(=O)n2-c2cc[nH]n2)C2CC2)n1 [Compound 261, (S)-5-chloro-2-(cyclopropyl((2,6-diamino-5-chloropyrimidin-4-yl)amino)methyl)-6-fluoro-3-(1H-pyrazol-3-yl)quinazolin-4(3H)-one]	5200 nM	49 nM	12 nM
N#Cc1c(N)nc(N)nc1N[C@H](c1nc2ccc(F)c(Cl)c2c(=O)n1-c1cc[nH]n1)C1CC1 [Compound 262, (S)-2,4-diamino-6-(((5-chloro-6-fluoro-4-oxo-3-(1H-pyrazol-3-yl)-3,4-dihydroquinazolin-2-yl)(cyclopropyl)methyl)amino)pyrimidine-5-carbonitrile]	405 nM	5 nM	1 nM

From patent publication US10308639B2, “Phosphatidylinositol 3-kinase inhibitors” (Gilead Sciences, Inc., priority 2014, dated 2019)
